Like-named read-outs stand apart in the source and are kept apart here.
Columns and labels:
[1] = in vivo; conditions: FVB, mouse, iv, 5 mg/kg
Procedure: A single intravenous bolus dose of 5 mg/kg ispinesib (vehicle: ethanol, Tween 80 and distilled water in volume ratio of 20:2.5:77.5) was administered to FVB wild-type and Mdr1a/b^−/− Bcrp1^−/− mice. This was followed by collection of whole blood and brain samples at 0.17, 0.5, 1, 2, 4, 8 and 15 hours post-dose, and blood samples were centrifuged to separate plasma for further analysis. […] The drug concentrations in all samples were measured by a specific and sensitive LC-MS/MS assay for ispinesib.
(§3) All dosing solutions were prepared on the day of the study. A serial sacrifice (destructive sampling) design was employed for sample collection. In all the pharmacokinetic studies conducted in non-tumor bearing FVB mice, the group size was 4 at each sampling time point (n = 4). At pre-determined time points, mice were euthanized using a carbon dioxide chamber. Blood was collected by cardiac puncture and transferred to sample tubes coated with heparin. The whole brain was isolated from skull and rinsed with ice-cold distilled water, and superficial meninges were removed by blotting with tissue paper. Plasma was separated by centrifugation of blood samples at 3500 rpm and 4°C for 15 minutes. […] All the samples were stored at -80°C, until further analysis. The concentrations of ispinesib in all the samples were analyzed by LC-MS/MS. Assuming a vascular volume of 1.4% in mouse brain ^5, the concentrations in brain were corrected for residual drug in brain vasculature.
Kp=AUCbrainAUCplasma (Equation 3)
Kp,uu=AUCbrain X fu, brain AUCplasma X fu, plasma (Equation 6)
The pharmacokinetic parameters from the concentration-time profiles in plasma and brain were determined by non-compartmental analysis (NCA) using Phoenix WinNonlin version 6.4 (Certara USA, Inc., Princeton, NJ). The AUCplasma and AUCbrain were calculated using the linear trapezoidal method. The standard errors around the mean of AUC was estimated by the sparse sampling module in WinNonlin ^6.

[2] = FVB wild-type; for Fold increase in Kp: 10 mg/kg i.p. ispinesib with or without 10 mg/kg i.p. elacridar; for increase of brain-to-plasma concentration ratio / brain delivery of ispinesib with elacridar co-administration: 10 mg/kg ip ispinesib + 10 mg/kg elacridar vs ispinesib alone, 2 and 6 hours, 10 mg/kg
Procedure: (§4) Blood and brain specimens were harvested at 2 and 6 hours post-dose.
as §3

[3] = GBM-bearing rats; for Fold increase in Kp over the Kp in normal brain of ispinesib treated group: 10 mg/kg ip, 2 hours; for increase in Kp when elacridar is co-administered with ispinesib: vs ispinesib alone
Procedure: (§5) Blood and brain (tumor-bearing) samples were collected at 2 hours post-dose, and whole brains were immediately flash frozen.
(§6) A fluorescence-guided punch biopsy technique (Supplementary Fig. S2) was developed and employed for isolation of tumor core, tumor rim (brain adjacent to tumor, BAT) and normal (non-tumor) brain regions from brain samples. Briefly, an acrylic adult rat brain matrix (WPI) was used to obtain thick coronal brain sections (1–2 mm thick) through the Td-Tomato labelled tumors. The tumor regions were identified by relative fluorescence signal (Nikon AZ100M microscope), and biospy punches with varying diameters were utilized to isolate tumor core (tumor region with fluorescence signal 5-fold or higher relative to background signal) and rim (region adjacent to tumor core with fluorescence signal 3 to 5-fold higher relative to background) (Supplementary Fig. S3). The samples from individual brains were pooled together for analysis of ispinesib concentrations by LC-MS/MS.
(§7) The tumor-bearing brain samples were harvested at 2 hours post dose (n = 9). Coronal sections that were 1-2 mm thick were obtained using an acrylic brain matrix, and a fluorescence microscopy guided punch biopsy method was utilized for the isolation of tumor core, tumor rim (brain adjacent to tumor, BAT) and normal (non-tumor) brain regions. The tumor core was identified as the tumor region with a fluorescence signal that was 5-fold or higher relative to the background signal. The tumor rim was defined as the region around the tumor core with a fluorescence signal 3 to 5-fold higher relative to the background signal. The brain tissue with a fluorescence signal similar to or lower than the background fluorescence was collected as the normal brain. The samples collected from each brain were pooled together, and ispinesib concentrations were determined using LC-MS/MS.

[4] = Rapid equilibrium dialysis for unbound fractions in mouse plasma and brain homogenate; format: in vitro ADME; conditions: FVB, 37 °C
Procedure: Rapid equilibrium dialysis was used to determine unbound fractions with modifications[48],[49] to manufacturer’s protocol (Thermo Fisher Scientific). Mouse plasma and brain homogenates (in 3 volumes of PBS, w/v) were spiked with 0.1 mg/mL ispinesib to obtain final concentrations of 1 µM. 300 µL of drug-spiked matrices were placed in donor chamber, and 500 µL of PBS was placed in receiver chamber of inserts (8 kDa MWCO), in triplicates. The base plate with inserts was incubated on Bioshaker at 37 °C and 1000 rpm for 4 hours. Ispinesib concentrations in samples were analyzed by liquid-chromatography tandem mass-spectrometry (LC-MS/MS).
The unbound fractions of ispinesib in plasma and brain were determined by using rapid equilibrium dialysis (RED) technique, with some alterations ^1,2 to manufacturer’s protocol (Thermo Fisher Scientific). […] RED experiments were initially conducted at 1, 2, 5 and 10 µM concentrations of ispinesib with 4 and 6 hour time points. […] Consequently, unbound fractions at 1 µM concentration and 4 hr time point were utilized for estimation of Kp,uu and free concentrations of ispinesib. […] The samples collected from the donor and receiver chambers after dialysis for 4 hours were stored at -80°C and analyzed for ispinesib concentrations by LC-MS/MS analysis. […]

[5] = in vivo; conditions: FVB, mouse, 10 mg/kg; for concentration at 2 h / concentration at 6 h: intraperitoneal
Procedure: as §4, §3

[6] = in vivo; conditions: Sprague-Dawley, rat, ip, 10 mg/kg
Procedure: as §5, §6, §7

[7] = system: TP53(-/-) GBM cells; assay: In vitro cytotoxicity assay (CellTiter-Glo, 72 hours); format: cell-based, murine; conditions: for EC50: Mus musculus, 72 h, 72 hours, read-out: Ispinesib EC50
Procedure: (§1) TP53(−/−) and PTEN(−/−) cells were seeded into 96-well plates (pre-coated with fibronectin) at a density of 5,000 cells per well in DMEM media with 0.5% FBS, 1% nitrogen supplement, 10 ng/ml of FGF and 10 ng/ml of PDGFAA. Human GBM1A cells were seeded into 96 well plates (pre-coated with laminin) in DMEM media with 1% neuroPlex supplement, 20 ng/ml of EGF and 20 ng/ml of […]. After 24 hours (~70% confluency), cells were exposed to ispinesib (n = 10 wells per concentration) from 0.025–1000 nM with or without 500 nM elacridar co-treatment. The plates were incubated for 72 hours, cell viability measured using CellTiter-Glo ATP-based assay, and read on a luminometer. The dose-response data were fit to the Hill equation.
(§2) In vitro potency data was fitted to “log(inhibitor) vs. normalized response - variable slope” equation in GraphPad Prism version 6.04 (GraphPad, La Jolla, CA) to determine half-maximal effective concentration (EC50).

[8] = system: PTEN(-/-) GBM cells; assay: as above; format: cell-based, murine; conditions: for EC50: Mus musculus, 72 h, 72 hours, read-out: Ispinesib EC50
Procedure: as §1, §2

[9] = Brain distribution after single intraperitoneal dose in FVB wild-type, Bcrp1-/-, Mdr1a/b-/- and Mdr1a/b-/- Bcrp1-/- mice; format: in vivo, mouse (FVB); conditions: for DA (Distribution advantage) / concentration at 2 h / concentration at 6 h / Kp at 2 h / Kp at 6 h: 10 mg/kg i.p.; for concentration at 2 h / concentration at 6 h / Kp at 2 h / Kp at 6 h: FVB, mouse, 10 mg/kg; for concentration at 2 h / concentration at 6 h: intraperitoneal; for Kp at 2 h / Kp at 6 h: brain/plasma, ip, read-out: Kp brain (Cbrain/Cplasma)
Procedure: At 2 and 6 hours following administration of ispinesib, whole blood and brain samples were harvested, and blood samples were centrifuged for plasma separation. Additional details on the conduct of in vivo pharmacokinetic studies are described in the supplementary methods. The drug concentrations in all samples were measured by a specific and sensitive LC-MS/MS assay for ispinesib.
Kp=CbrainCplasma (Equation 4)
DA= Kp, knockoutKp, wildtype (Equation 5)

[10] = system: orthotopic GBM1A tumors; assay: Pharmacodynamics: monopolar spindle formation in orthotopic GBM1A tumors; format: in vivo, NSG mice; conditions: single ip dose 10 mg/kg each drug; 8 hours
Procedure: Female NSG mice were intracerebrally injected with 500,000 GBM1A cells at coordinates X = 1.5 mm, Y = 1.5 mm and Z = 2.5 mm relative to the bregma, and tumor growth was monitored by bioluminescence imaging. After 4 weeks (tumor size of about 2 × 10^9 photons/sec), animals were randomized to receive single ip dose of microemulsion vehicle, 10 mg/kg elacridar, 10 mg/kg ispinesib, or a combination of 10 mg/kg ispinesib and 10 mg/kg elacridar (n = 8–10). At 8 hours following treatment, mice were perfused and whole brains were isolated. The samples were processed for immunofluorescence by staining for tubulin with an alpha-tubulin antibody (Cell signaling, Cat#2125) and counter staining with DAPI for visualizing nuclei. Images were scanned and counted for cells with monopolar spindles.

[11] = system: GBM1A cells; assay: In vitro cytotoxicity assay (CellTiter-Glo, 72 hours); format: cell-based, human; conditions: for EC50: Homo sapiens, 72 h, 72 hours, read-out: Ispinesib EC50
Procedure: as §1, §2

[12] = 5 mg/kg iv bolus, Mdr1a/b-/- Bcrp1-/- mice

Q: Which results are given for Cc1ccc(C(=O)N(CCCN)[C@@H](c2nc3cc(Cl)ccc3c(=O)n2Cc2ccccc2)C(C)C)cc1 [Ispinesib, N-(3-aminopropyl)-N-[(1 R)-1-(3-benzyl-7-chloro-4-oxoquinazolin-2-yl)-2-methylpropyl]-4-methylbenzamide]?
A: Kp uu ([1]; brain and plasma): 0.02; Kp uu ([1]; brain/plasma): 1; AUC(0-inf) ([1]; plasma): 5800 ng·h/mL; AUC(0-t) ([1]; plasma): 7500 ± 400 ng·h/mL; clearance ([1]; plasma): 9.9 mL/min/kg; half-life ([1]; plasma): 4.8 h; Fold increase in Kp ([2]; 2 hrs): 1; Fold increase in Kp ([2]; 6 hrs): 1; increase of brain-to-plasma concentration ratio / brain delivery of ispinesib with elacridar co-administration [2]: approximately 10 fold; increase of brain-to-plasma concentration ratio / brain delivery of ispinesib with elacridar co-administration ([2]; listed as ispinesb): 10 fold; Fold increase in Kp over the Kp in normal brain of ispinesib treated group ([3]; Normal brain): 1; Fold increase in Kp over the Kp in normal brain of ispinesib treated group ([3]; Tumor core): 7; Fold increase in Kp over the Kp in normal brain of ispinesib treated group ([3]; Tumor rim): 2.5; increase in Kp when elacridar is co-administered with ispinesib ([3]; tumor core): 4 fold; increase in Kp when elacridar is co-administered with ispinesib ([3]; tumor rim and normal brain regions): approximately 10 fold; fraction unbound at 4 h, 1 µM ([4]; mouse brain homogenate, corrected for dilution, read-out: percentage of unbound drug in brain): 0.0005 ± 0.0002; fraction unbound at 4 h, 1 µM ([4]; mouse plasma, read-out: percentage of unbound drug in plasma): 0.006 ± 0.001; Kp at 2 h ([5]; brain and plasma, ip): 0.1 ± 0.08; Kp at 6 h ([5]; brain and plasma, ip): 0.38 ± 0.14; concentration at 2 h ([5]; brain): 80 ± 20 ng/mL; concentration at 6 h ([5]; brain): 270 ± 90 ng/mL; concentration at 2 h ([5]; plasma): 1110 ± 570 ng/mL; concentration at 6 h ([5]; plasma): 730 ± 110 ng/mL; Kp at 2 h ([6]; normal brain): 0.11 ± 0.09; concentration at 2 h ([6]; normal brain): 60 ± 40 ng/mL; Kp at 2 h ([6]; tumor core): 0.77 ± 0.55; concentration at 2 h ([6]; tumor core): 380 ± 240 ng/mL; Kp at 2 h ([6]; tumor rim): 0.27 ± 0.18; concentration at 2 h ([6]; tumor rim): 150 ± 110 ng/mL; EC50 ([7]; [Elacridar] 0 nM): 14.4 ± 1.2 nM; EC50 ([7]; [Elacridar] 500 nM): 3.9 ± 0.5 nM; Hill Coefficient ([7]; [Elacridar] 0 nM): 0.6 ± 0.02; Hill Coefficient ([7]; [Elacridar] 500 nM): 0.4 ± 0.01; EC50 ([8]; [Elacridar] 0 nM): 10 ± 0.9 nM; EC50 ([8]; [Elacridar] 500 nM): 3.3 ± 0.4 nM; Hill Coefficient ([8]; [Elacridar] 0 nM): 0.6 ± 0.02; Hill Coefficient ([8]; [Elacridar] 500 nM): 0.4 ± 0.01; DA (Distribution advantage) ([9]; 2 hrs, Bcrp1a/b-/-): 1; DA (Distribution advantage) ([9]; 2 hrs, Mdr1a/b-/-): 3; DA (Distribution advantage) ([9]; 2 hrs, Mdr1a/b-/- Bcrp1a/b-/-): 28; DA (Distribution advantage) ([9]; 2 hrs, Wild-type): 1; DA (Distribution advantage) ([9]; 6 hrs, Bcrp1a/b-/-): 1; DA (Distribution advantage) ([9]; 6 hrs, Mdr1a/b-/-): 10; DA (Distribution advantage) ([9]; 6 hrs, Mdr1a/b-/- Bcrp1a/b-/-): 33; DA (Distribution advantage) ([9]; 6 hrs, Wild-type): 1; concentration at 2 h ([9]; brain, 2 hrs, Bcrp1a/b-/-, read-out: Cbrain): 140 ± 20 ng/mL; concentration at 2 h ([9]; brain, 2 hrs, Mdr1a/b-/- Bcrp1a/b-/-, read-out: Cbrain): 3770 ± 670 ng/mL; concentration at 2 h ([9]; brain, 2 hrs, Mdr1a/b-/-, read-out: Cbrain): 580 ± 140 ng/mL; concentration at 2 h ([9]; brain, 2 hrs, Wild-type, read-out: Cbrain): 180 ± 90 ng/mL; concentration at 6 h ([9]; brain, 6 hrs, Bcrp1a/b-/-, read-out: Cbrain): 150 ± 30 ng/mL; concentration at 6 h ([9]; brain, 6 hrs, Mdr1a/b-/- Bcrp1a/b-/-, read-out: Cbrain): 5590 ± 2850 ng/mL; concentration at 6 h ([9]; brain, 6 hrs, Mdr1a/b-/-, read-out: Cbrain): 1100 ± 100 ng/mL; concentration at 6 h ([9]; brain, 6 hrs, Wild-type, read-out: Cbrain): 140 ± 80 ng/mL; Kp at 2 h ([9]; 2 hrs, Bcrp1a/b-/-): 0.08; Kp at 2 h ([9]; 2 hrs, Mdr1a/b-/- Bcrp1a/b-/-): 3.07; Kp at 2 h ([9]; 2 hrs, Mdr1a/b-/-): 0.35; Kp at 2 h ([9]; 2 hrs, Wild-type): 0.11; Kp at 6 h ([9]; 6 hrs, Bcrp1a/b-/-): 0.15; Kp at 6 h ([9]; 6 hrs, Mdr1a/b-/- Bcrp1a/b-/-): 5.2; Kp at 6 h ([9]; 6 hrs, Mdr1a/b-/-): 1.52; Kp at 6 h ([9]; 6 hrs, Wild-type): 0.16; concentration at 2 h ([9]; plasma, 2 hrs, Bcrp1a/b-/-, read-out: Cplasma): 1740 ± 420 ng/mL; concentration at 2 h ([9]; plasma, 2 hrs, Mdr1a/b-/- Bcrp1a/b-/-, read-out: Cplasma): 1590 ± 1070 ng/mL; concentration at 2 h ([9]; plasma, 2 hrs, Mdr1a/b-/-, read-out: Cplasma): 1750 ± 730 ng/mL; concentration at 2 h ([9]; plasma, 2 hrs, Wild-type, read-out: Cplasma): 1610 ± 720 ng/mL; concentration at 6 h ([9]; plasma, 6 hrs, Bcrp1a/b-/-, read-out: Cplasma): 1060 ± 400 ng/mL; concentration at 6 h ([9]; plasma, 6 hrs, Mdr1a/b-/- Bcrp1a/b-/-, read-out: Cplasma): 1030 ± 210 ng/mL; concentration at 6 h ([9]; plasma, 6 hrs, Mdr1a/b-/-, read-out: Cplasma): 870 ± 540 ng/mL; concentration at 6 h ([9]; plasma, 6 hrs, Wild-type, read-out: Cplasma): 870 ± 540 ng/mL; efflux transporter substrate status ([9]; from brain distribution in transporter-deleted mice): a substrate for P-gp and Bcrp transporters; monopolar spindles in tumor core (tubulin/DNA staining) [10]: occasional monopoles; predicted unbound concentrations in the brain compared with in vitro EC50 against GBM1A (5 mg/kg intravenous, FVB wild-type mice, from in vivo concentrations and fu): appreciably below the EC50; Kp, brain-to-plasma AUC ratio (total drug) [12]: 12.12; Kp,uu, unbound partition coefficient [12]: 1.01; Kp, brain-to-plasma AUC ratio (total drug) (5 mg/kg iv bolus, wild-type mice): 0.23; EC50 ([11]; [Elacridar] 0 nM): 1.4 ± 0.2 nM; EC50 ([11]; [Elacridar] 500 nM): 0.5 ± 0.04 nM; Hill Coefficient ([11]; [Elacridar] 0 nM): 1.8 ± 0.3; Hill Coefficient ([11]; [Elacridar] 500 nM): 1.7 ± 0.2
